# From ChEMBL document CHEMBL5316335, “Tanzawaic Acid Derivatives from the Marine-Derived Penicillium steckii as Inhibitors of RANKL-Induced Osteoclastogenesis” (J Nat Prod, 2023)
# Active and inactive are the calls of the source. No cut-off for these calls is given here.
# Legend:
# [1] = test system: DU-145; test: Anticancer activity against human DU-145 cells assessed as reduction in cell viability by MTT assay; type: functional, cell-based
# [2] = test system: Candida albicans; test: Antifungal activity against Candida albicans Berkhout assessed as inhibition of fungal growth by broth microdilution method; type: functional, organism-based
# [3] = test system: Colletotrichum gloeosporioides; test: Antifungal activity against Colletotrichum gloeosporioides assessed as inhibition of fungal growth by broth microdilution method; type: functional, organism-based
# [4] = test system: Pyricularia grisea; test: Antifungal activity against Magnaporthe grisea assessed as inhibition of fungal growth by broth microdilution method; type: functional, organism-based
# [5] = test system: Staphylococcus aureus; test: Antibacterial activity against Staphylococcus aureus assessed as inhibition of bacterial growth by broth microdilution method; type: functional, organism-based
# [6] = test system: LNCaP; test: Anticancer activity against human LNCaP cells assessed as reduction in cell viability by MTT assay; type: functional, cell-based
# [7] = test system: Sclerotinia sclerotiorum; test: Antifungal activity against Sclerotinia sclerotiorum Hanzawa assessed as inhibition of fungal growth by broth microdilution method; type: functional, organism-based
# [8] = test system: Klebsiella pneumoniae; test: Antibacterial activity against Klebsiella pneumoniae assessed as inhibition of bacterial growth by broth microdilution method; type: functional, organism-based
# [9] = test system: CWR22R; test: Anticancer activity against human 22Rv1 cells assessed as reduction in cell viability by MTT assay; type: functional, cell-based
# [10] = test system: PC-3; test: Anticancer activity against human PC-3 cells assessed as reduction in cell viability by MTT assay; type: functional, cell-based
# [11] = Inhibition of LPS-induced NF-kappaB activation in mouse RAW264.7 cells transfected with NF-kappaB luciferase reporter gene pretreated with compounds for 30 mins followed by LPS stimulation for 8 hrs by luciferase reporter gene assay; type: cell-based
# [12] = test system: BMMC; test: Anti-osteoclastogenic activity in mouse BMMC assessed as inhibition of RANKL-induced osteoclast differentiation at 5 to 15 uM and measured after 3 days by TRAP staining inverted microscopic analysis; type: functional, cell-based; settings: dose 5-15 µM, time 3.0 day
SMILES,Activity [1],Activity [2],Activity [3],Activity [4],Activity [5],Activity [6],Activity [7],Activity [8],Activity [9],Activity [10],IC50 [11] [µM],Activity [12]
Cc1ccc2c(c1/C=C/C=C/C(=O)O)[C@H](C)C[C@@](C)(O)C2,inactive,inactive,inactive,inactive,inactive,inactive,inactive,inactive,inactive,inactive,18.6,
C[C@@H]1C[C@@H]2[C@H](O)[C@H](O)[C@H](C)[C@](O)(/C=C/C=C/C(=O)O)[C@H]2[C@H](C)C1,inactive,inactive,inactive,inactive,inactive,inactive,inactive,inactive,inactive,inactive,15.2,
C[C@@H]1C[C@H](C)[C@H](O)c2ccc(CO)c(/C=C/C=C/C(=O)O)c21,inactive,inactive,inactive,inactive,inactive,inactive,inactive,inactive,inactive,inactive,10.4,Dose-Dependent Effect
Cc1ccc(S(=O)(=O)/C=C/C#N)cc1,,,,,,,,,,,5,
